Assay results taken from ChEMBL document CHEMBL1201862, “PubChem BioAssay data set” (2004).
Active and inactive are the calls of the source.

Key:
Cytochrome P450 2C19 = Cytochrome P450 2C19 (Homo sapiens, UniProt P33261); assay: Cytochrome panel assay with activity outcomes. Panel member name: p450-cyp2c19 Compounds with AC50 equal or less than 10 uM are considered active; assay type: functional; settings: read-out: AC50
Cytochrome P450 3A4 = Cytochrome P450 3A4 (Homo sapiens, UniProt P08684);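 note: CYP3A4 tested as one member of a cytochrome P450 panel screen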
Sequence of Cytochrome P450 3A4 (P08684 whole entry, the tested form may be a part): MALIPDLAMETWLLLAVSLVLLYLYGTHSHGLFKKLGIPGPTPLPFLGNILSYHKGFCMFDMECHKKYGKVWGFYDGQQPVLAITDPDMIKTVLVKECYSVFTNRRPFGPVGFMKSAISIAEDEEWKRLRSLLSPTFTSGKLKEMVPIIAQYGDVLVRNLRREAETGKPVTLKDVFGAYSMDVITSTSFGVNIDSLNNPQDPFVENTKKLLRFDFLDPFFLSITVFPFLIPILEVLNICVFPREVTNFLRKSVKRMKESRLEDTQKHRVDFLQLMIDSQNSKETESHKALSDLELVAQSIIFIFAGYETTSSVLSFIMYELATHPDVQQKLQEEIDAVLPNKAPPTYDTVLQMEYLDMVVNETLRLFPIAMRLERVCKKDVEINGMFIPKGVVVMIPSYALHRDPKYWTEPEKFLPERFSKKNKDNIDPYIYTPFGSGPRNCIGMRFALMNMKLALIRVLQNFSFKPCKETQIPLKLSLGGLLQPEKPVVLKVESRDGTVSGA

[1] = biological target: T1, RNA-binding protein pos-1 (Caenorhabditis elegans, UniProt G5EF15); assay: disruptors of C. elegans POS-1 RNA interaction – biochemical, fluorescence polarization, dose response (AID 1964);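 note: purified POS-1 fused to maltose binding protein made in E. coli; potency of compounds blocking POS-1 binding to fluorescent RNA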
T1 sequence (G5EF15 whole entry): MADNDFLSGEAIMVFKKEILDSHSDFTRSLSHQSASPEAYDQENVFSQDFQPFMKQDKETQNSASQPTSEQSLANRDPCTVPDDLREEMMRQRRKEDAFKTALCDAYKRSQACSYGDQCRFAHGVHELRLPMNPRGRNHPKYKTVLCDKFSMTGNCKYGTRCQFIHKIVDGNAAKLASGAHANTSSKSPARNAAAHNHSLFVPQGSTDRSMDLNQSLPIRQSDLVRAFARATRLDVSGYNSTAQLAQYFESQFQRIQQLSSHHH

[2] = biological target: T2, Zinc finger protein mex-5 (Caenorhabditis elegans, UniProt Q9XUB2); assay: potency of MEX-5 RNA-binding blockers – biochemical, C. elegans, fluorescence polarization, dose response (AID 1960)
T2 sequence (Q9XUB2 whole entry): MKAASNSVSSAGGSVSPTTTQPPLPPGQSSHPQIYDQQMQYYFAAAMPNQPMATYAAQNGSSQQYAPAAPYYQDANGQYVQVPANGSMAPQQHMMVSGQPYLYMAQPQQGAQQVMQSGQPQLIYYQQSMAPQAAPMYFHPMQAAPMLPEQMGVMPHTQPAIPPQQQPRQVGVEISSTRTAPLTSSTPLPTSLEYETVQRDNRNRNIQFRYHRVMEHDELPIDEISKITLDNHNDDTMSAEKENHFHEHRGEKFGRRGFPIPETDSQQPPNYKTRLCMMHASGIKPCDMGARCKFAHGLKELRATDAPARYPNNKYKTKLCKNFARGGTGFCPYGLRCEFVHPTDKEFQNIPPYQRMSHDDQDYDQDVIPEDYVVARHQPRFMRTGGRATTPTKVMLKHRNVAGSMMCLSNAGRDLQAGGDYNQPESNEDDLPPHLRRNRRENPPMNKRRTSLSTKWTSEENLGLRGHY

[3] = biological target: Lysine-specific demethylase 4C (Homo sapiens, UniProt Q9H3R0); assay: inhibition of JMJD2C H3K9me3 demethylation – biochemical, DELFIA europium, cherry-picked samples, dose response (AID 488835); assay type: functional
Sequence of Lysine-specific demethylase 4C (Q9H3R0 whole entry): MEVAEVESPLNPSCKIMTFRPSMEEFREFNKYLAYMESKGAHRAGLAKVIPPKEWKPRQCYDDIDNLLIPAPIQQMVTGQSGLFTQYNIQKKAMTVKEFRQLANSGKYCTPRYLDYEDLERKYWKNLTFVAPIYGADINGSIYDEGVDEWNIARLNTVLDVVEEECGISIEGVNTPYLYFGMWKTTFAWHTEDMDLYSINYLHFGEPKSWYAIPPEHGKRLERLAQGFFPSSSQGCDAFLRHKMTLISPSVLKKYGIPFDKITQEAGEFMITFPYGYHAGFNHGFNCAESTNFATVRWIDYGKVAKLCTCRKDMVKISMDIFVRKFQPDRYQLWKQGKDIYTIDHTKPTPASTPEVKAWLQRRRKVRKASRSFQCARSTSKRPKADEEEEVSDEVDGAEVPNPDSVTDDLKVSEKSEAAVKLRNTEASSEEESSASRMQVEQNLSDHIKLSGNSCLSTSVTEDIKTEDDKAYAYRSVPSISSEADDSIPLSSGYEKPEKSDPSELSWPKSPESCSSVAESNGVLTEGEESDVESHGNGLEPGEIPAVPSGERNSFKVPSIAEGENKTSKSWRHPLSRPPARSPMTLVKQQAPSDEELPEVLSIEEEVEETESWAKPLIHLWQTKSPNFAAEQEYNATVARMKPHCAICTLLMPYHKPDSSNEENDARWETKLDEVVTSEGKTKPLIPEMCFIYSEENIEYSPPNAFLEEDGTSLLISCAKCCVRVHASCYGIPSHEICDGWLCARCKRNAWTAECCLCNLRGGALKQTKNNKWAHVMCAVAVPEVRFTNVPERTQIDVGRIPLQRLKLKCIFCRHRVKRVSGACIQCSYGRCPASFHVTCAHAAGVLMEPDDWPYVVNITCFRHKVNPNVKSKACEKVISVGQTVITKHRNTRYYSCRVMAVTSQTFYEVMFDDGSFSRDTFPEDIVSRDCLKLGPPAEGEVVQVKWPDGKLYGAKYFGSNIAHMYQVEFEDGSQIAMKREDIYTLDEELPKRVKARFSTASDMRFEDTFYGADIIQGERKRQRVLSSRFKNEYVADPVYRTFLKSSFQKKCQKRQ

[4] = NIH-3T3 fibroblast cytotoxicity, dose response, cytotoxicity control, cell-based, fluorescence, Alamar Blue, secondary assay (AID 2327); assay type: functional;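 note: NIH-3T3 mouse fibroblasts cultured with fluconazole at 8 µg/mL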
Streptococcus = assay: GAS UMAA2166 growth inhibition – luminescence, BacTiterGlo, counter-screen for streptokinase expression inhibitor project, dose response (AID 1915); assay type: functional, organism-based;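 note: potency for reduction of bacterial viability or growth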
[5] = biological target: T3, Serine/threonine-protein phosphatase (Candida dubliniensis (strain CD36 / CBS 7987 / NCPF 3949 / NRRLY-17841) (Yeast), UniProt B9W6M3); assay: blockers of CaCl2-induced CDRE-lacZ signaling – S. cerevisiae, luminescence, secondary, dose response (AID 2388); assay type: functional, cell-based;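 note: yeast reporter cells carrying a calcineurin-responsive lacZ construct stimulated with calcium chloride; luminescent beta-galactosidase reporter signal in whole cells rather than isolated phosphatase activity; potency for inhibition where a drop in reporter signal means calcineurin blockade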
T3 sequence (B9W6M3 whole entry): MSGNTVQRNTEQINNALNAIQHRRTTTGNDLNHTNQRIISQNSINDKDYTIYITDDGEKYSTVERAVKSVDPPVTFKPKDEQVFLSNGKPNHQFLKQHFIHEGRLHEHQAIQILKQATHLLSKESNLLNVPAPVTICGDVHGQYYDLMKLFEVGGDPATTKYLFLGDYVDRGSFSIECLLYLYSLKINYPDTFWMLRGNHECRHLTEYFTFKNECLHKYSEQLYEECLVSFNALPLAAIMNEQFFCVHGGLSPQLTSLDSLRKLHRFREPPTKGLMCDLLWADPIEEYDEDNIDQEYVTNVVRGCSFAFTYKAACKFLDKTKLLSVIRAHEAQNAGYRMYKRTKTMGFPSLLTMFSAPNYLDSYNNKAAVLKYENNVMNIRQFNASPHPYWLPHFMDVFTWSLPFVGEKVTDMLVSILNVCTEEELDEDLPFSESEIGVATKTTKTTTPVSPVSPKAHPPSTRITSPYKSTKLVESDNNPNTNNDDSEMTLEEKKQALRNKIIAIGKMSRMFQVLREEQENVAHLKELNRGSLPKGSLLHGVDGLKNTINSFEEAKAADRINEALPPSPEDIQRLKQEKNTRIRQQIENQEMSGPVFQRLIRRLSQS

INS1 = assay: INS-1E survival protection against cytokine death – cell-based, luminescence, retest, dose response (AID 449756); assay type: functional; settings: Rattus norvegicus;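 note: cell death triggered by IL-1 beta plus TNF-alpha plus IFN-gamma mixture; protective hits raise ATP signal compared with cytokine alone wells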
[6] = alpha-synuclein stem-loop luciferase translation blockers – H4 neuroglioma cells, luminescence, confirmation (AID 1988); assay type: functional, cell-based
[7] = biological target: ATP-dependent molecular chaperone HSP82 (Candida albicans (strain WO-1) (Yeast), UniProt C4YTQ8); assay: steroid-induced GRE reporter decrease in yeast – S. cerevisiae, luminescence, Hsp90 inhibitor project, dose response (AID 2400); assay type: functional, cell-based;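 note: beta-galactosidase luminescence from glucocorticoid response element reporter as proxy for Hsp90 function; inhibitor potency where signal loss means Hsp90 inhibition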
Sequence of ATP-dependent molecular chaperone HSP82 (C4YTQ8 whole entry): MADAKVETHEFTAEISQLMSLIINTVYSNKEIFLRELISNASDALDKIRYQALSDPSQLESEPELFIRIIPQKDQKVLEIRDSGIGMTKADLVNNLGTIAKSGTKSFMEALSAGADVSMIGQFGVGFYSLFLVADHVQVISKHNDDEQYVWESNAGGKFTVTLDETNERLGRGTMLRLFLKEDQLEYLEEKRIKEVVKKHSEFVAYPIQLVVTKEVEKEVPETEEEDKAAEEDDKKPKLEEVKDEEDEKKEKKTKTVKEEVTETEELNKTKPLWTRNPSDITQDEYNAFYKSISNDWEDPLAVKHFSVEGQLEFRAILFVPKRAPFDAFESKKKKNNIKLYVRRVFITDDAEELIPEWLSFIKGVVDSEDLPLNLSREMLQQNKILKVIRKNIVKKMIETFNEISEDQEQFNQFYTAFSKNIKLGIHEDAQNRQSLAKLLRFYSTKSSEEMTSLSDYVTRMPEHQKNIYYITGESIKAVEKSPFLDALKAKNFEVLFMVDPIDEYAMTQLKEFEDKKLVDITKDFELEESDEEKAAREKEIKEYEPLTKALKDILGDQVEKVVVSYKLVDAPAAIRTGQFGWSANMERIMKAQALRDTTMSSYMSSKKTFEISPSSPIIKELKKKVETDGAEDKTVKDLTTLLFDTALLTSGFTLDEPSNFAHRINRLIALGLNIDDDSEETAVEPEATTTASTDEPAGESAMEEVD

[8] = biological target: T3, Serine/threonine-protein phosphatase; assay: Fluorescence Cell-Based Secondary Assay to Identify Inhibitors of Calcineurin. [Related pubchem assays (depositor defined):AID1979, AID2007]; assay type: functional
[9] = test system: Streptococcus sp. 'group A'; assay: Streptococcus pyogenes SK(-)GAS viability under kanamycin – luminescence, BacTiterGlo, confirmation, counter-screen for streptokinase expression inhibitor project, dose response (AID 1900); assay type: functional, organism-based
[10] = fluconazole-exposed Candida albicans growth modulators – fluorescence, retest, confirmation (AID 2467); assay type: functional, cell-based
[11] = luciferase reporter signal suppression in cells – H4 neuroglioma cells, luminescence, dose response (AID 1990); assay type: functional, cell-based
[12] = microbe, parasite or virus in culture; assay type: functional; settings: Mycobacterium tuberculosis
[13] = Luminescence Cell-Based Dose Response HTS to Identify Inhibitors of 5'UTR Stem-Loop Driven Prion Protein mRNA Translation in H4 Neuroglioblastoma Cells. [Related pubchem assays: 1827 (Project Summary), 1813 (Primary HTS)]; assay type: functional

Sequence of Cytochrome P450 2C19 (P33261 whole entry): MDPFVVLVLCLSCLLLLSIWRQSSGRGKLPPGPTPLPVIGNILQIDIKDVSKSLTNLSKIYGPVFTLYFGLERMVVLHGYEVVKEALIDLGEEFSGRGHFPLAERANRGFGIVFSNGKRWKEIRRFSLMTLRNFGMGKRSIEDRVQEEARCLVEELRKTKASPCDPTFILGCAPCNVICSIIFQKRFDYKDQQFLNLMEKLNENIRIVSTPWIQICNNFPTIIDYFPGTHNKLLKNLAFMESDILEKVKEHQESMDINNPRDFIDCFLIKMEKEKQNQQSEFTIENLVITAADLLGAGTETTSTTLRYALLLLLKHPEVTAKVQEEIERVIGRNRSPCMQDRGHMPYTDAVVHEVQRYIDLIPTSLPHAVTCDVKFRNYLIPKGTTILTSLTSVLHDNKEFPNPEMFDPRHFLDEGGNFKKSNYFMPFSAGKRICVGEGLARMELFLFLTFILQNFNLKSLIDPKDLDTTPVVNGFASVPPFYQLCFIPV

Question: Which AC50 (Cytochrome P450 2C19) does the source give for `O=C(c1ccco1)N1CCC2(CC1)CCN(c1ccccn1)CC2` here?
Answer: 31.6 µM (inconclusive)

Question: What about the AC50 (Cytochrome P450 3A4) of the same molecule?
Answer: inconclusive

Question: With `C=CCN1C(=O)NC(=O)/C(=C/c2ccc(OC)c(CSc3ccccn3)c2)C1=O` as the molecule, how does the EC50 [1] read?
Answer: > 300 µM (not active)

Question: And the EC50 [2]?
Answer: > 300 µM (not active)

Question: What about the AC50 [3] of the same molecule?
Answer: 40.1 µM (active)

Question: Which EC50 [4] does the source give for `CC(C)COCc1ccc(O)c2ncccc12` here?
Answer: 31.8 µM (active)

Question: And the EC50 (Streptococcus)?
Answer: 5.43 µM (active)

Question: And the EC50 [5]?
Answer: > 180 µM (inactive)

Question: What about the AC50 (INS1) of the same molecule?
Answer: 2.35 µM (active)

Question: And the EC50 [6]?
Answer: 9.38 µM (active)

Question: What about the EC50 [7] of the same molecule?
Answer: > 150 µM (inactive)

Question: And the EC50 [8]?
Answer: > 285 µM (inactive)

Question: What about the EC50 [9] of the same molecule?
Answer: 1.67 µM (active)

Question: And the EC50 [10]?
Answer: 0.294 µM (active)

Question: What about the EC50 [11] of the same molecule?
Answer: 12.1 µM (active)

Question: And the CC50 [12]?
Answer: 10.2 µM (active)

Question: What about the EC50 [13] of the same molecule?
Answer: 10.9 µM (active)
